Values of other authors in patent US8329734B2, “Topical therapy for migraine” (AFGIN Pharma LLC, priority 2009, dated 2012).

crossing of intact blood-brain barrier (in vivo)	metabolism (in vivo)	oral bioavailability (oral) [%]	Structure (SMILES)
does cross an intact blood-brain barrier	metabolized by the MAO system		CN(C)CCc1c[nH]c2ccc(C[C@H]3COC(=O)N3)cc12 [zolmitriptan]
	metabolized by the MAO system		CN(C)CCc1c[nH]c2ccc(Cn3cncn3)cc12 [rizatriptan]
		~70	CNS(=O)(=O)CCc1ccc2[nH]cc(C3CCN(C)CC3)c2c1 [naratriptan]
	metabolized by the MAO system		CNS(=O)(=O)Cc1ccc2[nH]cc(CCN(C)C)c2c1 [Sumatriptan, 3-(2-(dimethylamino)ethyl)-N-methyl-1H-indole-5-methanesulfonamide]
